According to patent US20160185797A1, “ALKYNYL ALCOHOLS AND METHODS OF USE” (Genentech, Inc., priority 2013, published 2016):

Legend:
[1] = tested on: p52 (NF-kB2) nuclear translocation in HeLa cells; assay: p52 (NF-kB2) nuclear translocation assay in HeLa cells, anti-lymphotoxin beta receptor antibody stimulated (non-classical NF-kB signaling), high content imaging; format: cell-based; details: Homo sapiens, 100 ng/mL anti-lymphotoxin beta receptor antibody for 5 hours, read-out: p52 HeLa Transloc Assay (IC50)
In short: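 HeLa cells in 10% FBS medium were treated with compound (0.2% DMSO final) and stimulated with 100 ng/mL anti-lymphotoxin beta receptor antibody for 5 h. Fixed cells were immunostained for p52 and imaged with DRAQ5 nuclear stain. Translocation is the nuclear to cytoplasmic intensity ratio, […].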

[2] = tested on: REL-A (p65) nuclear translocation in HeLa cells; assay: REL-A (p65) nuclear translocation assay in HeLa cells, TNF-α stimulated (classical NF-kB signaling), high content imaging; format: cell-based; details: Homo sapiens, HeLa, compound 4.5 h, then 10 ng/mL TNF-α for 30 minutes, read-out: REL-A HeLa Transloc Assay (IC50)
In short: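 HeLa cells in medium with 10% fetal bovine serum were exposed to compounds (0.2% DMSO final) for 4.5 hours, then stimulated with 10 ng/mL TNF-α for 30 minutes. After fixation in 4% paraformaldehyde and permeabilization with 0.1% Triton X-100, cells were stained with 400 ng/mL anti-REL-A (p65) antibody, an Alexa488 secondary and DRAQ5. Opera imaging quantified the nuclear-to-cytoplasmic signal ratio to give IC50.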

[3] = target: T1, nuclear factor-kappa B (NF-kB)-inducing kinase (NIK) (Homo sapiens, UniProt Q99558); assay: NIK enzyme inhibition assay (Transcreener ADP fluorescence polarization, NIK ADP-FP); format: biochemical
T1 construct: made in house; host or cells: baculovirus-infected insect cells
T1 sequence (Q99558 whole entry): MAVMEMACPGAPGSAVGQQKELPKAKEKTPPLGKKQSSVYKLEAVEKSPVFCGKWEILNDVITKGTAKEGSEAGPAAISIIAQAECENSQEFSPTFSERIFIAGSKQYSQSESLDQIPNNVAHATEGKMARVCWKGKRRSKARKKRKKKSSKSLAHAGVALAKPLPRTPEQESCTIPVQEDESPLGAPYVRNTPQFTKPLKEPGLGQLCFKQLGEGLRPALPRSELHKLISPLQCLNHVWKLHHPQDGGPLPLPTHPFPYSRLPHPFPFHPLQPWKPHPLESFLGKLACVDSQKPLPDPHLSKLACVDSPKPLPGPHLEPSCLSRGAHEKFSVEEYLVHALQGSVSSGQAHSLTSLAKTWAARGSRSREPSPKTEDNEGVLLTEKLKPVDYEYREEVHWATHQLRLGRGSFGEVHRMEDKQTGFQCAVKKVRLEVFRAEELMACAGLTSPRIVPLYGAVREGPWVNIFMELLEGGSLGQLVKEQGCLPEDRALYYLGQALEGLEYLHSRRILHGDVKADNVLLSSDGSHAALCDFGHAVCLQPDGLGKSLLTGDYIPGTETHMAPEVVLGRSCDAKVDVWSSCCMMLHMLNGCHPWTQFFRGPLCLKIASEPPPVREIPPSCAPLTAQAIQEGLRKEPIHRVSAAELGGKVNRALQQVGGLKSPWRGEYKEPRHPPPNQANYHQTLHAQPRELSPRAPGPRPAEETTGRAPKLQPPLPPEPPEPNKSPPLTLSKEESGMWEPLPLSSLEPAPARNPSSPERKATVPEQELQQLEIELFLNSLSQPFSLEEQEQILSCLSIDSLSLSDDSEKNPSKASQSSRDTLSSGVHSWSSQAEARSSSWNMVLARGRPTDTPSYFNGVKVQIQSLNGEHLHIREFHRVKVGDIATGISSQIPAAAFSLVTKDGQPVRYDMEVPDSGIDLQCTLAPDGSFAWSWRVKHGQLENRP

## CN1CC[C@@](O)(C#Cc2cccc(-c3nc(C(N)=O)cc4c3ncn4C)c2)C1=O [Example 47, 4-[3-[2-[(3R)-3-hydroxy-1-methyl-2-oxo-pyrrolidin-3-yl]ethynyl]phenyl]-1-methyl-imidazo[4,5-c] pyridine-6-carboxamide]
[1]
  IC50: 270 nM
[2]
  IC50: ≥ 20000 nM
[3]
  Ki: 0.94 nM

## Cc1ncc(-c2cccc(C#C[C@]3(O)CCN(C)C3=O)c2)nc1C(N)=O [Example 165, 6-[3-[2-[(3R)-3-hydroxy-1-methyl-2-oxo-pyrrolidin-3-yl]ethynyl]phenyl]-3-methyl-pyrazine-2-carboxamide]
[1]
  IC50: 180 nM
[2]
  IC50: > 2000 nM
[3]
  Ki: 0.08 nM

## CN1CC[C@@](O)(C#Cc2cccc(-c3nc(C(N)=O)cn4c(C(F)(F)F)cnc34)c2)C1=O [Example 113, 8-[3-[2-[(3R)-3-hydroxy-1-methyl-2-oxo-pyrrolidin-3-yl]ethynyl]phenyl]-3-(trifluoromethyl)imidazo [1,2-a]pyrazine-6-carboxamide]
[1]
  IC50: 212 nM
[2]
  IC50: ≥ 2000 nM
[3]
  Ki: 2.12 nM

## CN1CC[C@@](O)(C#Cc2cccc(-c3nc(C(N)=O)cc(N4CC5(COC5)C4)n3)c2)C1=O [Example 11, 2-[3-[2-[(3R)-3-hydroxy-1-methyl-2-oxo-pyrrolidin-3-yl]ethynyl]phenyl]-6-(6-oxa-2-azaspiro[3.3]heptan-2-yl) pyrimidine-4-carboxamide]
[1]
  IC50: 2500 nM
[2]
  IC50: > 20000 nM
[3]
  Ki: 4.65 nM

## CN1CC[C@@](O)(C#Cc2cccc(-c3nc(C(N)=O)c(Cl)cc3F)c2)C1=O [Example 60, 3-chloro-5-fluoro-6-[3-[2-[(3R)-3-hydroxy-1-methyl-2-oxo-pyrrolidin-3-yl]ethynyl]phenyl] pyridine-2-carboxamide]
[1]
  IC50: 1390 nM
[2]
  IC50: ≥ 20000 nM
[3]
  Ki: 5.61 nM

## CN1CC[C@@](O)(C#Cc2cccc(-c3cc(N)cc(C(N)=O)n3)c2)C1=O [Example 124, 4-amino-6-[3-[2-[(3R)-3-hydroxy-1-methyl-2-oxo-pyrrolidin-3-yl]ethynyl]phenyl]pyridine-2-carboxamide]
[1]
  IC50: 300 nM
[2]
  IC50: ≥ 2000 nM
[3]
  Ki: 0.05 nM

## CN1CC[C@@](O)(C#Cc2cccc(-c3nccc(C(N)=O)n3)c2)C1=O [Example 32, 2-[3-[2-[(3R)-3-hydroxy-1-methyl-2-oxo-pyrrolidin-3-yl]ethynyl]phenyl] pyrimidine-4-carboxamide]
[1]
  IC50: 244 nM
[2]
  IC50: > 20000 nM
[3]
  Ki: 0.22 nM

## CN1CC[C@@](O)(C#Cc2cccc(-c3nc(C(N)=O)cc4c3cnn4C)c2)C1=O [Example 74, 4-[3-[2-[(3R)-3-hydroxy-1-methyl-2-oxo-pyrrolidin-3-yl]ethynyl]phenyl]-1-methyl-pyrazolo[4,3-c]pyridine-6-carboxamide]
[1]
  IC50: 60.2 nM
[2]
  IC50: ≥ 20000 nM
[3]
  Ki: 0.53 nM

## CN1CC[C@@](O)(C#Cc2cc(-c3cccc(C(N)=O)n3)c3ncsc3c2)C1=O [Example 160]
[1]
  IC50: 416 nM
[2]
  IC50: > 2000 nM
[3]
  Ki: 0.5 nM

## CN1CC[C@@](O)(C#Cc2ccc(F)c(-c3ccc(NC4COC4)c(C(N)=O)n3)c2)C1=O [Example 85, 6-[2-fluoro-5-[2-[(3R)-3-hydroxy-1-methyl-2-oxo-pyrrolidin-3-yl]ethynyl]phenyl]-3-(oxetan-3-ylamino)pyridine-2-carboxamide]
[1]
  IC50: 5.88 nM
[2]
  IC50: 6320 nM
[3]
  Ki: 0.05 nM

## Cc1nnc([C@](C)(O)C#Cc2cccc(-c3nc(C(N)=O)cc(-c4ccnn4C)n3)c2)o1 [Example 137, 2-[3-[(3R)-3-hydroxy-3-(5-methyl-1,3,4-oxadiazol-2-yl)but-1-ynyl]phenyl]-6-(2-methylpyrazol-3-yl)pyrimidine-4-carboxamide]
[1]
  IC50: 268 nM
[2]
  IC50: ≥ 20000 nM
[3]
  Ki: 3.68 nM

## CN1CC[C@@](O)(C#Cc2cccc(-c3cc(-c4ncccn4)cc(C(N)=O)n3)c2)C1=O [Example 129, 6-[3-[2-[(3R)-3-hydroxy-1-methyl-2-oxo-pyrrolidin-3-yl]ethynyl]phenyl]-4-pyrimidin-2-yl-pyridine-2-carboxamide]
[1]
  IC50: 155 nM
[2]
  IC50: ≥ 2000 nM
[3]
  Ki: 0.3 nM

## CN1CC[C@@](O)(C#Cc2cc(-c3nc(C(N)=O)c(N)cc3F)ccc2F)C1=O [Example 116, 3-amino-5-fluoro-6-[4-fluoro-3-[2-[(3R)-3-hydroxy-1-methyl-2-oxo-pyrrolidin-3-yl]ethynyl]phenyl]pyridine-2-carboxamide]
[1]
  IC50: 11.6 nM
[2]
  IC50: 12400 nM
[3]
  Ki: 0.05 nM

## CN1CC[C@@](O)(C#Cc2cccc(-c3ncc(N)c(C(N)=O)n3)c2)C1=O [Example 145, 5-amino-2-[3-[2-[(3R)-3-hydroxy-1-methyl-2-oxo-pyrrolidin-3-yl]ethynyl]phenyl]pyrimidine-4-carboxamide]
[1]
  IC50: 38 nM
[2]
  IC50: ≥ 2000 nM
[3]
  Ki: 0.05 nM

## CN1CC[C@@](O)(C#Cc2cccc(-c3ncc(NCC(F)(F)F)c(C(N)=O)n3)c2)C1=O [Example 146, 2-[3-[2-[(3R)-3-hydroxy-1-methyl-2-oxo-pyrrolidin-3-yl]ethynyl]phenyl]-5-(2,2,2-trifluoroethylamino) pyrimidine-4-carboxamide]
[1]
  IC50: 11.6 nM
[2]
  IC50: ≥ 20000 nM
[3]
  Ki: 0.37 nM

## CN1CC[C@@](O)(C#Cc2cccc(-c3nc(NC4CC4)cc(C(N)=O)n3)c2)C1=O [Example 9, 6-(cyclopropylamino)-2-[3-[2-[(3R)-3-hydroxy-1-methyl-2-oxo-pyrrolidin-3-yl]ethynyl]phenyl] pyrimidine-4-carboxamide]
[1]
  IC50: 270 nM
[2]
  IC50: > 20000 nM
[3]
  Ki: 1.24 nM

## CN1CC[C@@](O)(C#Cc2cc(-c3ccc(N)c(C(N)=O)n3)c(F)cc2F)C1=O [Example 118, 3-amino-6-[2,4-difluoro-5-[2-[(3R)-3-hydroxy-1-methyl-2-oxo-pyrrolidin-3-yl]ethynyl]phenyl]pyridine-2-carboxamide]
[1]
  IC50: 19 nM
[2]
  IC50: ≥ 2000 nM
[3]
  Ki: 0.05 nM

## CN1CC[C@@](O)(C#Cc2cccc(-c3nc(C(N)=O)c(NCc4ccon4)cc3F)c2)C1=O [Example 120, 5-fluoro-6-[3-[2-[(3R)-3-hydroxy-1-methyl-2-oxo-pyrrolidin-3-yl]ethynyl]phenyl]-3-(isoxazol-3-ylmethylamino)pyridine-2-carboxamide]
[1]
  IC50: 26.6 nM
[2]
  IC50: ≥ 2000 nM
[3]
  Ki: 0.33 nM

## COCCNc1cnc(-c2cccc(C#C[C@]3(O)CCN(C)C3=O)c2)nc1C(N)=O [Example 89, 2-[3-[2-[(3R)-3-hydroxy-1-methyl-2-oxo-pyrrolidin-3-yl]ethynyl]phenyl]-5-(2-methoxyethylamino) pyrimidine-4-carboxamide]
[1]
  IC50: 32.4 nM
[2]
  IC50: 1000 nM
[3]
  Ki: 0.05 nM

## CN1CC[C@@](O)(C#Cc2cccc(-c3nc(C(N)=O)cc(C(F)(F)F)n3)c2)C1=O [Example 17, 2-[3-[2-[(3R)-3-hydroxy-1-methyl-2-oxo-pyrrolidin-3-yl]ethynyl]phenyl]-6-(trifluoromethyl)pyrimidine-4-carboxamide]
[1]
  IC50: 225 nM
[2]
  IC50: > 20000 nM
[3]
  Ki: 0.84 nM

## CN1CC[C@@](O)(C#Cc2cccc(-c3nc(C(N)=O)ccc3F)c2)C1=O [Example 15, 5-fluoro-6-[3-[2-[(3R)-3-hydroxy-1-methyl-2-oxo-pyrrolidin-3-yl]ethynyl]phenyl] pyridine-2-carboxamide]
[1]
  IC50: 630 nM
[2]
  IC50: > 20000 nM
[3]
  Ki: 1.21 nM
